From patent US20140107316A1, “DRUG DELIVERY CONJUGATES CONTAINING UNNATURAL AMINO ACIDS AND METHODS FOR USING” (priority 2012, published 2014)
“Also recorded” adds a separate entry of the source. Read-outs that look alike come from different tables or passages of the source. Marks after values point to notes of the source that are not given here.

Legend:
H23 = assay: In vitro test against cancer cell lines, H23; format: cell-based, Human; details: H23, FR status −; evaluated from 0.1-100 nM
Description: (§1) In vitro test against the various cancer cell lines. Cells are heavily seeded in 24-well Falcon plates and allowed to form nearly confluent monolayers overnight. Thirty minutes prior to the addition of the test compound, spent medium is aspirated from all wells and replaced with fresh folate-deficient RPMI medium (FFRPMI). A subset of wells are designated to receive media containing 100 μM folic acid. The cells in the designated wells are used to determine the targeting specificity. […] Following one rinse with 1 mL of fresh FFRPMI containing 10% heat-inactivated fetal calf serum, each well receives 1 mL of medium containing increasing concentrations of test compound (4 wells per sample) in the presence or absence of 100 μM free folic acid as indicated. Treated cells are pulsed for 2 h at 37° C., rinsed 4 times with 0.5 mL of media, and then chased in 1 mL of fresh medium up to 70 h. Spent medium is aspirated from all wells and replaced with fresh medium containing 5 μCi/mL ^3H-thymidine. […] A 450 μL aliquot of each solubilized sample is transferred to a scintillation vial containing 3 mL of Ecolume scintillation cocktail and then counted in a liquid scintillation counter. Final tabulated results are expressed as the percentage of ^3H-thymidine incorporation relative to untreated controls.
(§2) Folate receptor expressing cells. […] EC1456 was evaluated from 0.1-100 nM.

MDA-MB-231 = assay: In vitro test against cancer cell lines, MDA-MB-231; format: cell-based, Human
Description: as §1, §2

NCI/ADR-RES-Cl2 = assay: In vitro test against cancer cell lines, NCI/ADR-RES-Cl2; format: cell-based, Human
Description: as §1, §2

HepG2 = assay: In vitro test against cancer cell lines, HepG2; format: cell-based, Human; details: HepG2, FR status −; evaluated from 0.1-100 nM
Description: as §1, §2

KB-CR tumors = assay: Cisplatin-resistant KB-CR tumor model; format: in vivo; details: 2 μmol/kg i.v., three times per week (M/W/F), 2 weeks
[1] = Maximum tolerated dose (MTD); format: in vivo, female Sprague-Dawley rats
From the text: Maximum tolerated dose (MTD). […] For Example, EC1456 has a MTD of at least 0.51 μmol/kg and EC0531 has a MTD of 0.33 μmol/kg, […] when administered by i.v., BIW, 2 wks in female Sprague-Dawley rats. Histopathologic changes were not observed with doses of EC1456 at or below the MTD.

[2] = tested on: folate receptor-positive KB cells
Description: Inhibition of Cellular DNA Synthesis. The compounds described herein were evaluated using an in vitro cytotoxicity assay that predicts the ability of the drug to inhibit the growth of folate receptor-positive KB cells. The compounds were comprised of folate linked to a respective chemotherapeutic drug, as prepared according to the protocols described herein. The KB cells were exposed for up to 7 h at 37° C. to the indicated concentrations of folate-drug conjugate in the absence or presence of at least a 100-fold excess of folic acid. The cells were then rinsed once with fresh culture medium and incubated in fresh culture medium for 72 hours at 37° C. Cell viability was assessed using a ^3H-thymidine incorporation assay.
In vitro test against the various cancer cell lines. Cells are heavily seeded in 24-well Falcon plates and allowed to form nearly confluent monolayers overnight. Thirty minutes prior to the addition of the test compound, spent medium is aspirated from all wells and replaced with fresh folate-deficient RPMI medium (FFRPMI). A subset of wells are designated to receive media containing 100 μM folic acid. The cells in the designated wells are used to determine the targeting specificity. […] Following one rinse with 1 mL of fresh FFRPMI containing 10% heat-inactivated fetal calf serum, each well receives 1 mL of medium containing increasing concentrations of test compound (4 wells per sample) in the presence or absence of 100 μM free folic acid as indicated. Treated cells are pulsed for 2 h at 37° C., rinsed 4 times with 0.5 mL of media, and then chased in 1 mL of fresh medium up to 70 h. Spent medium is aspirated from all wells and replaced with fresh medium containing 5 μCi/mL ^3H-thymidine. Following a further 2 h 37° C. incubation, cells are washed 3 times with 0.5 mL of PBS and then treated with 0.5 mL of ice-cold 5% trichloroacetic acid per well. After 15 min, the trichloroacetic acid is aspirated and the cell material solubilized by the addition of 0.5 mL of 0.25 N sodium hydroxide for 15 min. A 450 μL aliquot of each solubilized sample is transferred to a scintillation vial containing 3 mL of Ecolume scintillation cocktail and then counted in a liquid scintillation counter. Final tabulated results are expressed as the percentage of ^3H-thymidine incorporation relative to untreated controls.
as §2

AN3CA = assay: In vitro test against cancer cell lines, AN3CA; format: cell-based, Human; details: FR status −, evaluated from 0.1-100 nM
Description: as §1, §2

KB tumors = assay: KB tumor assay in nu/nu mice; details: for CR (%) / Cures (%) / PR (%) / Toxicity Deaths (%) / Toxicity Avg. Weight Loss: TIW
Description: Inhibition of Tumor Growth in Mice. Four to seven week-old mice (Balb/c or nu/nu strains) were purchased from Harlan Sprague Dawley, Inc. (Indianapolis, Ind.). Normal rodent chow contains a high concentration of folic acid (6 mg/kg chow); accordingly, mice used were maintained on the folate-free diet (Harlan diet #TD00434) for 1 week before tumor implantation to achieve serum folate concentrations close to the range of normal human serum. For tumor cell inoculation, 1×10^6 M109 cells (Balb/c strain) or 1×10^6 KB cells (nu/nu strain) in 100 μL were injected in the subcutis of the dorsal medial area. Tumors were measured in two perpendicular directions every 2-3 days using a caliper, and their volumes were calculated as 0.5×L×W^2, where L=measurement of longest axis in mm and W=measurement of axis perpendicular to L in mm. […] Dosing solutions were prepared fresh each day in PBS and administered through the lateral tail vein of the mice.
General KB Tumor Assay. The anti-tumor activity of the compounds described herein, when administered intravenously (i.v.) to tumor-bearing animals, was evaluated in nu/nu mice bearing subcutaneous KB tumors. Approximately 8 days post tumor inoculation in the subcutis of the right axilla with 1×10^6 KB cells (average tumor volume at to=50-100 mm^3), in mice (5/group) were injected i.v. three times a week (TIW), for 3 weeks with […] of the drug delivery conjugate or with an equivalent dose volume of PBS (control), unless otherwise indicated. Tumor growth was measured using calipers at 2-day or 3-day intervals in each treatment group. Tumor volumes were calculated using the equation V=a×b^2/2, where “a” is the length of the tumor and “b” is the width expressed in millimeters.
Toxicity as Measured by Weight Loss. The percentage weight change of the mice was determined in mice (5 mice/group) on selected days post-tumor inoculation (PTI), and graphed.
In vivo activity against tumors.

With `CCCC(=O)OCN(C(=O)[C@@H](NC(=O)[C@H]1CCCCN1C)[C@@H](C)CC)[C@H](C[C@@H](OC(C)=O)c1nc(C(=O)N[C@@H](Cc2ccc(O)cc2)C[C@H](C)C(=O)NNC(=O)OCCSSC[C@@H](NC(=O)[C@H](CCC(=O)NC[C@H](O)[C@@H](O)[C@H](O)[C@H](O)CO)NC(=O)[C@@H](CCC(=O)O)NC(=O)[C@H](CCC(=O)NC[C@H](O)[C@@H](O)[C@H](O)[C@H](O)CO)NC(=O)[C@@H](CCC(=O)O)NC(=O)[C@H](CCC(=O)NC[C@H](O)[C@@H](O)[C@H](O)[C@H](O)CO)NC(=O)CC[C@@H](NC(=O)c2ccc(NCc3cnc4nc(N)[nH]c(=O)c4n3)cc2)C(=O)O)C(=O)O)cs1)C(C)C` [EC1456] the “EC1456 Activity (IC50)” value (H23) was “Inactive”, the “Competable up to 100 nM” value (MDA-MB-231; MDA-MB-231) was “Yes” and the IC50 (MDA-MB-231; MDA-MB-231, FR status +, evaluated from 0.1-100 nM, read-out: EC1456 Activity (IC50)) was 0.47 nM. The “Competable up to 100 nM” value (NCI/ADR-RES-Cl2; NCI/ADR-RES-Cl2) was “Yes”, the IC50 (NCI/ADR-RES-Cl2; NCI/ADR-RES-Cl2, FR status ++, evaluated from 0.1-100 nM, read-out: EC1456 Activity (IC50)) was 1.4 nM and the “EC1456 Activity (IC50)” value (HepG2) was “Inactive”. For the same molecule, the complete responses (KB-CR tumors) was “⅕”, the cures (KB-CR tumors) was “⅘” and the “weight loss / host animal toxicity” value (KB-CR tumors) was “did not exhibit significant host animal toxicity; also recorded: did not cause any weight loss”. The Histopathologic changes ([1]; doses at or below the MTD) was “not observed”, the “improvement in MTD over EC0531” value ([1]; i.v., BIW, 2 wks) was 65% and the MTD ([1]; rat, in vivo, iv, BIW, 2 wks) was ≥ 0.51 µmol/kg. The “improvement in specificity compared to EC0531” value [2] was 4 fold, the “Competable up to 100 nM” value ([2]; KB) was “Yes” and the “In vitro specificity (fold)” value ([2]; difference in IC50 between competed and non-competed group) was 944 fold. For the same molecule, the “specificity for the folate receptor as determined by folic acid competition” value ([2]; difference in IC50 between competed group and non-competed group) was “ca. 1000 fold”, the IC50 ([2]; read-out: 50% competition, competed group (excess folic acid)) was 1420 nM and the IC50 ([2]; read-out: EC1456 Activity (IC50), KB, FR status +++, evaluated from 0.1-100 nM) was 2.3 nM. For the same molecule, the IC50 ([2]; read-out: In vitro IC50) was 1.5 nM, the “EC1456 Activity (IC50)” value (AN3CA) was “Inactive” and the In vivo activity (KB tumors) was “Complete”. For the same molecule, the “CR (%)” value (KB tumors; 0.5 μmol/kg, 3 weeks) was 0%, the “Cures (%)” value (KB tumors; 0.5 μmol/kg, 3 weeks) was 0% and the “PR (%)” value (KB tumors; 0.5 μmol/kg, 3 weeks) was 60%. The “Toxicity Deaths (%)” value (KB tumors; 0.5 μmol/kg, 3 weeks) was 0%, the “Toxicity Avg. Weight Loss” value (KB tumors; 0.5 μmol/kg, 3 weeks, untreated control group 2.4%) was <5%* and the “CR (%)” value (KB tumors; 0.67 μmol/kg, 2 weeks) was 20%. For the same molecule, the “Cures (%)” value (KB tumors; 0.67 μmol/kg, 2 weeks) was 0%, the “PR (%)” value (KB tumors; 0.67 μmol/kg, 2 weeks) was 60% and the “Toxicity Avg. Weight Loss” value (KB tumors; 0.67 μmol/kg, 2 weeks) was <2%. The “Toxicity Deaths (%)” value (KB tumors; 0.67 μmol/kg, 2 weeks) was 0%, the “specific activity mediated by the folate receptor” value (KB tumors; 1 μmol/kg TIW co-dosed with excess EC0923 (50 or 100 μmol/kg)) was “competable with excess EC0923” and the “whole animal toxicity (animal body weight)” value (KB tumors; 1 μmol/kg TIW, 2 wk) was “did not result in any observable gross toxicity; also recorded: does not show any evidence of whole animal toxicity”. For the same molecule, the “CR (%)” value (KB tumors; 1.0 μmol/kg, 2 weeks) was 0%, the “Cures (%)” value (KB tumors; 1.0 μmol/kg, 2 weeks) was 60% and the “PR (%)” value (KB tumors; 1.0 μmol/kg, 2 weeks) was 40%. The “Toxicity Avg. Weight Loss” value (KB tumors; 1.0 μmol/kg, 2 weeks) was <1.5%, the “Toxicity Deaths (%)” value (KB tumors; 1.0 μmol/kg, 2 weeks) was 0% and the “CR (%)” value (KB tumors; 2.0 μmol/kg, 2 weeks) was 0%. For the same molecule, the “Cures (%)” value (KB tumors; 2.0 μmol/kg, 2 weeks) was 100%, the “PR (%)” value (KB tumors; 2.0 μmol/kg, 2 weeks) was 0% and the “Toxicity Avg. Weight Loss” value (KB tumors; 2.0 μmol/kg, 2 weeks) was <3%. The “Toxicity Deaths (%)” value (KB tumors; 2.0 μmol/kg, 2 weeks) was 0%, the “complete response (test animals)” value (KB tumors; intravenously 1 μmol/kg TIW, 2 wk) was 4/4 and the “toxicity in relation to anti-tumor effect in mice” value (KB tumors; mouse, in vivo) was “anti-tumor responses without significant toxicity”.
